Source: patent US20180305334A1, “COMPOUNDS, COMPOSITIONS AND METHODS OF USE AGAINST STRESS GRANULES” (Aquinnah Pharmaceuticals, Inc., priority 2015, published 2018)

Test system: TDP-43 aggregation in PC12 cells stably expressing TDP-43^Q331K::eGFP
Test: In vitro efficacy assay, TDP-43 aggregation concentration-response
Assay type: cell-based
Details: PC12 TDP-43^Q331K::eGFP, 1 hour pre-treatment, 15 μM sodium arsenite for 23 hours, 10-point dose response
Method in brief: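 PC12 cells stably expressing TDP-43^Q331K::eGFP pre-treated with compound for 1 h, then stressed with 15 μM sodium arsenite for 23 h. Fluorescence microscopy scored the fraction of GFP-positive cells carrying TDP-43 aggregates across compound concentrations.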

[1] = Rattus norvegicus, PC-12, inhibition of TDP-43 aggregation
[2] = inhibition of TDP-43 aggregation

Structure (SMILES) | IC50 [1] [µM] | IC50 [2] [µM]
CCN(CC1CCCN(Cc2ccc(Cl)cc2)C1)C(=O)c1cc2cc(OCc3ccccc3)ccc2[nH]1 (stereo not drawn) [Compound 173] | 1.5 to 4 | –
CCN(CC1CCCN(Cc2ccc(Cl)cc2)C1)C(=O)c1cc2cc(F)c(F)cc2[nH]1 (stereo not drawn) [Compound 172] | 1.5 to 4 | –
CCN(CC1CCCN(Cc2cc3ccccc3o2)C1)C(=O)c1cc2ccccc2[nH]1 (stereo not drawn) [Compound 206] | < 1.5 | –
CCN(CC1CCCN(Cc2ccc(OC(F)(F)F)cc2)C1)C(=O)c1cc2cc(OC(F)(F)F)ccc2[nH]1 (stereo not drawn) [Compound 176] | > 10 | –
CCN(CC1CCN(CC(C)(C)c2cc3ccccc3o2)CC1)C(=O)c1cc2ccccc2[nH]1 [Compound 405] | 4 to 7 | –
COc1cccc(CCN2CCCC(CN(C(=O)c3cc4ccccc4[nH]3)C(C)C)C2)c1 (stereo not drawn) [Compound 143] | < 1.5 | –
CCN(CC1CCN(CCc2cccc(OC)c2)C1)C(=O)c1cc2ccccc2[nH]1 (stereo not drawn) [Compound 223] | 1.5 to 4 | –
CCN(CC1CCCN(CCc2cccc(OC)c2)C1)C(=O)c1n[nH]c2ccccc12 (stereo not drawn) [Compound 249] | < 1.5 | –
CCN(CC1CCCN(Cc2cc3ccccc3o2)C1)C(=O)c1cc2c(OC)cccc2[nH]1 (stereo not drawn) [Compound 204] | < 1.5 | –
COc1cccc(CCN2CCCC(CN(CC3CCCCC3)C(=O)c3cc4ccccc4[nH]3)C2)c1 (stereo not drawn) [Compound 220] | > 10 | –
CCN(CC1CCCN(Cc2ccc(OC)cc2)C1)C(=O)c1cc2cc(F)ccc2[nH]1 (stereo not drawn) [Compound 151] | < 1.5 | –
COc1cccc(CC(C)(C)N2CCC(CN(CC(F)(F)F)C(=O)c3cc4ccccc4[nH]3)CC2)c1 [Compound 350] | < 1.5 | –
CCN(CC1CCCN(CCc2cccc(OC)c2)C1)C(=O)c1ccc(C)[nH]1 (stereo not drawn) [Compound 246] | 1.5 to 4 | –
CCN(CC1CCCN(CCc2cccc(OC)c2)C1)C(=O)c1nc2ccccc2o1 (stereo not drawn) [Compound 241] | > 10 | –
COc1ccc(CC(=O)N2CCC(CNC(=O)c3cc4ccccc4[nH]3)CC2)cc1 [Compound 323] | < 1.5 | –
CCN(CC1CCCN(CCc2ccc(F)cc2)C1)C(=O)c1cc2ccccc2[nH]1 (stereo not drawn) [Compound 126] | > 10 | –

Structure (SMILES) | IC50 [1] [µM] | IC50 [2] [µM]
CCN(CC1CCCN(Cc2ccc(OC(F)F)cc2)C1)C(=O)c1cc2cc(OC(F)F)ccc2[nH]1 (stereo not drawn) [Compound 178] | < 1.5 | –
CCN(CC1CCCN(CCc2ccc3c(c2)OCC3)C1)C(=O)c1cc2ccccc2[nH]1 (stereo not drawn) [Compound 145] | 1.5 to 4 | –
CCN(CC1CCCN(CCc2cccc(OC)c2)C1)C(=O)c1nc2ccccc2n1C (stereo not drawn) [Compound 240] | > 10 | –
CCN(CC1CCCN(C(C)(C)Cc2cccc(OC)c2)C1)C(=O)c1cc2cc(OC)ccc2[nH]1 (stereo not drawn) [Compound 334] | – | < 1.5
CCN(CC1CCCN(CCc2cccc(OC(F)F)c2)C1)C(=O)c1cc2cc(OC(F)F)ccc2[nH]1 (stereo not drawn) [Compound 180] | > 10 | –
CCN(CC1CCN(C(C)(C)Cc2cccc(F)c2)CC1)C(=O)c1cc2ccccc2[nH]1 [Compound 330] | < 1.5 | –
COc1cccc(CC(=O)N2CCC(CNC(=O)c3cc4ccccc4[nH]3)CC2)c1 [Compound 322] | 1.5 to 4 | –
COc1cccc(CCN2CCCC(CN(C(=O)c3cc4ccccc4[nH]3)c3ccccc3)C2)c1 (stereo not drawn) [Compound 144] | < 1.5 | –
CCN(CC1CCCN(C(C)(C)c2cc3ccccc3o2)C1)C(=O)c1cc2ccccc2[nH]1 (stereo not drawn) [Compound 338] | – | < 1.5
CCN(CC1CCCN(Cc2ccc(OC)cc2)C1)C(=O)c1cc2c(F)cccc2[nH]1 (stereo not drawn) [Compound 166] | > 10 | –
CCN(CC1CCCN(Cc2ccc(Cl)cc2)C1)C(=O)c1cc2c(F)cc(F)cc2[nH]1 (stereo not drawn) [Compound 169] | < 1.5 | –
CCN(CC1CCCN(CCc2ccccc2OC)C1)C(=O)c1cc2ccccc2[nH]1 (stereo not drawn) [Compound 124] | 4 to 7 | –
CCN(CC1CCN(C(C)(C)Cc2cc3ccccc3o2)CC1)C(=O)c1cc2ccccc2[nH]1 [Compound 339] | < 1.5 | –
CCN(CC1CCN(Cc2cccc(F)c2)CC1)C(=O)c1cc2ccccc2[nH]1 [Compound 252] | > 10 | –
COc1ccc(C(=O)N2CCC(CNC(=O)c3cc4ccccc4[nH]3)CC2)cc1 [Compound 321] | < 1.5 | –
CCN(CC1CCCN(CCc2cccc(OC)c2)C1)C(=O)c1cc2ccccc2n1CC (stereo not drawn) [Compound 238] | 1.5 to 4 | –

Now from value to molecule:

IC50 [1] [µM] | IC50 [2] [µM] | Structure (SMILES)
> 10 | – | CCN(CC1CCNCC1)C(=O)c1cc2cc(OC)ccc2[nH]1 [compound 400]
4 to 7 | – | COc1cccc(CN2CCC(CN(C)C(=O)c3cc4ccccc4[nH]3)CC2)c1 [compound 257]
< 1.5 | – | CCN(CC1CCN(C2(Cc3cccc(OC)c3)CC2)CC1)C(=O)c1cc2ccccc2[nH]1 [Compound 360]
< 1.5 | – | CC(C)(Cc1ccccc1)N1CCC(CN(CC(F)(F)F)C(=O)c2cc3ccccc3[nH]2)CC1 [Compound 354]
1.5 to 4 | – | CCN(CC1CCN(Cc2ccccc2)CC1)C(=O)c1cc2ccccc2[nH]1 [compound 291]
< 1.5 | – | CCN(CC1CCN(C(C)(C)c2ccc(OC)cc2)CC1)C(=O)c1cc2ccccc2[nH]1 [Compound 358]
> 10 | – | CC(C)N(CC1CCN(Cc2ccccc2Cl)CC1)C(=O)c1cc2ccccc2[nH]1 [compound 281]
> 10 | – | CC(C)N(CC1CCNCC1)C(=O)c1cc2ccccc2[nH]1 [compound 276]
1.5 to 4 | – | CCN(CC1CCN(CC(F)(F)c2cccc(OC)c2)CC1)C(=O)c1cc2ccccc2[nH]1 [Compound 412]
4 to 7 | – | CCN(CC1CCNCC1)C(=O)c1cc2cc(OC(F)(F)F)ccc2[nH]1 [compound 401]
> 10 | – | CC(C)N(CC1CCN(Cc2ccccc2F)CC1)C(=O)c1cc2ccccc2[nH]1 [compound 280]
1.5 to 4 | – | COc1ccccc1CN1CCC(CNC(=O)c2cc3ccccc3[nH]2)CC1 [compound 273]
> 10 | – | O=C(NCC1CCN(Cc2ccccc2Cl)CC1)c1cc2ccccc2[nH]1 [compound 293]
> 10 | – | O=C(NCC1CCN(Cc2ccc(Cl)cc2)CC1)c1cc2ccccc2[nH]1 [compound 275]
> 10 | – | CN(CC1CCN(Cc2cccc(F)c2)CC1)C(=O)c1cc2ccccc2[nH]1 [compound 255]
< 1.5 | – | COc1cccc(CCN2CCC(CN(CC(F)(F)F)C(=O)c3cc4ccccc4[nH]3)CC2)c1 [compound 307]
> 10 | – | CCN(CC1CCN(Cc2ccc(Cl)cc2)CC1)C(=O)c1cc2ccccc2[nH]1 [compound 289]
4 to 7 | – | CC(C)N(CC1CCN(Cc2cccc(Cl)c2)CC1)C(=O)c1cc2ccccc2[nH]1 [compound 278]
4 to 7 | – | CCN(CC1CCCNC1)C(=O)c1cc2c(F)cccc2[nH]1 (stereo not drawn) [compound 421]
1.5 to 4 | – | CCN(CC1CCN(Cc2ccc(Cl)cc2)CC1)C(=O)c1cc2cc(OC)ccc2[nH]1 [compound 403]
> 10 | – | CN(CC1CCNCC1)C(=O)c1cc2ccccc2[nH]1 [compound 254]
< 1.5 | – | CCN(CC1CCCN(CC(C)(C)c2cccc(OC(F)F)c2)C1)C(=O)c1cc2cc(OC(F)F)ccc2[nH]1 (stereo not drawn) [Compound 408]
> 10 | – | COc1cccc(CN2CCC(CNC(=O)c3cc4ccccc4[nH]3)CC2)c1 [compound 292]
> 10 | – | COc1ccc(CN2CCC(CNC(=O)c3cc4ccccc4[nH]3)CC2)cc1 [compound 274]
1.5 to 4 | – | CCN(CC1CCN(CC(F)(F)c2cccc(F)c2)CC1)C(=O)c1cc2ccccc2[nH]1 [Compound 410]
> 10 | – | CCN(CC1CCCNC1)C(=O)c1cc2ccccc2[nH]1 (stereo not drawn) [Compound 413]
4 to 7 | – | CCN(CC1CCN(Cc2cccc(Cl)c2)CC1)C(=O)c1cc2ccccc2[nH]1 [compound 266]
> 10 | – | CCN(CC1CCNCC1)C(=O)c1cc2cc(OC(F)F)ccc2[nH]1 [compound 402]
